Where two headings read alike, the source gives them in different places.
Columns and labels:
Test in all cases: 3H-TdR (3H-thymidine) incorporation assay at 72 hr
SF-268 = format: cell-based, Human
MCF-7 = format: cell-based, Human
CCRF-CEM = format: cell-based
Procedure: (§1) Table of IC50 Values (μM) for Controls
(§2) Exposition of 24 hr to drug, wash, incubated for another 48 hr (total of 72 hr assay)
(§3) (3H-Thymidine Incorporation Assay)

CEM/dCK- = format: cell-based; conditions: for Factor* (Resistance Factor = Ratio of dCK- on Wild-type CCRF-CEM): ratio of IC50 CEM/dCK- to CCRF-CEM, 24 h
Procedure: as §1, §2, §3

H-460 = format: cell-based, Human
[1] = Homo sapiens, SF-268, read-out: IC50 SF-268 24 h, 24 h drug exposure, wash, another 48 hr, 3H-TdR incorporation at 72 hr
[2] = Homo sapiens, MCF7, read-out: IC50 MCF-7 24 h, 24 h drug exposure, wash, another 48 hr, 3H-TdR incorporation at 72 hr
[3] = Homo sapiens, CCRF-CEM, read-out: IC50 CCRF-CEM 24 h, 24 h drug exposure, wash, another 48 hr, 3H-TdR incorporation at 72 hr
[4] = Homo sapiens, CCRF-CEM, read-out: IC50 CEM/dCK- 24 h, 24 h drug exposure, wash, another 48 hr, deoxycytidine kinase-deficient CCRF-CEM
[5] = Homo sapiens, NCI-H460, read-out: IC50 H-460 24 h, 24 h drug exposure, wash, another 48 hr, 3H-TdR incorporation at 72 hr
[6] = read-out: IC50 SF-268 24 h, 24 h drug exposure, wash, another 48 hr, 3H-TdR incorporation at 72 hr
[7] = read-out: IC50 CCRF-CEM 24 h, 24 h drug exposure, wash, another 48 hr, 3H-TdR incorporation at 72 hr
[8] = read-out: IC50 H-460 24 h, 24 h drug exposure, wash, another 48 hr, 3H-TdR incorporation at 72 hr
[9] = Homo sapiens, SF-268, read-out: IC50 SF-268 24 h
[10] = Homo sapiens, MCF7, read-out: IC50 MCF-7 24 h
[11] = Homo sapiens, CCRF-CEM, read-out: IC50 CCRF-CEM 24 h
[12] = Homo sapiens, CCRF-CEM, read-out: IC50 CEM/dCK- 24 h
[13] = Homo sapiens, NCI-H460, read-out: IC50 H-460 24 h

Row | Compound | IC50 (SF-268; [1]) [nM] | IC50 (MCF-7; [2]) [nM] | IC50 (CCRF-CEM; [3]) [nM] | IC50 (CEM/dCK-; [4]) [nM] | IC50 (H-460; [5]) [nM] | IC50 (SF-268; [6]) [nM] | IC50 (CCRF-CEM; [7]) [nM] | IC50 (H-460; [8]) [nM] | IC50 (CEM/dCK-; read-out: IC50 CEM/dCK- 24 h, 24 h drug exposure, wash, another 48 hr, deoxycytidine kinase-deficient CCRF-CEM) [nM] | Factor* (Resistance Factor = Ratio of dCK- on Wild-type CCRF-CEM) (CEM/dCK-) | IC50 (MCF-7; read-out: IC50 MCF-7 24 h, 24 h drug exposure, wash, another 48 hr, 3H-TdR incorporation at 72 hr, bis trifluoroacetate salt) [nM] | IC50 (H-460; read-out: IC50 H-460 24 h, 24 h drug exposure, wash, another 48 hr, 3H-TdR incorporation at 72 hr, bis trifluoroacetate salt) [nM] | IC50 (SF-268; [9]) [nM] | IC50 (MCF-7; [10]) [nM] | IC50 (CCRF-CEM; [11]) [nM] | IC50 (CEM/dCK-; [12]) [nM] | IC50 (H-460; [13]) [nM]
1 | Nc1ccn([C@@H]2CO[C@H](COC(=O)CCCCCNCc3ccccc3)O2)c(=O)n1.O=C(O)C(F)(F)F.O=C(O)C(F)(F)F (stereo in doubt) [Compound 83, 6-Benzylamino-hexanoic acid 4-(4-amino-2-oxo-2H-pyrimidin-1-yl)-[1,3]dioxolan-2-ylmethyl ester bis trifluoroacetate salt] | 260 | – | 22 | > 100000 | – | – | – | – | – | 4,545 | 83 | 54 | – | – | – | – | –
2 | CC(=O)OCC1OC2OC(C)(OC[C@H]3OC[C@@H](n4ccc(NC(=O)OCc5ccccc5)nc4=O)O3)OC2C(OC(C)=O)C1OC(C)=O (stereo in doubt) [Compound 148, Acetic acid 6-acetoxy-5-acetoxymethyl-2-[4-(4-benzyloxycarbonylamino-2-oxo-2H-pyrimidin-1-yl)-[1,3]dioxolan-2-ylmethoxy]-2-methyl-tetrahydro-[1,3]dioxolo[4,5-b]pyran-7-yl ester] | 9900 | 6300 | 6300 | 24000 | 36000 | – | – | – | – | 4 | – | – | – | – | – | – | –
3 | CC(=O)OCC1OC2OC(C)(OC[C@H]3OC[C@@H](n4ccc(N)nc4=O)O3)OC2C(OC(C)=O)C1OC(C)=O (stereo in doubt) [Compound 151, Acetic acid 6-acetoxy-5-acetoxymethyl-2-[4-(4-amino-2-oxo-2H-pyrimidin-1-yl)-[1,3]dioxolan-2-ylmethoxy]-2-methyl-tetrahydro-[1,3]dioxolo [4,5-b]pyran-7-yl ester] | 4400 | 8300 | 590 | > 100000 | 9700 | – | – | – | – | >169 | – | – | – | – | – | – | –
4 | COC(OC)OC[C@H]1OC[C@@H](n2ccc(N)nc2=O)O1 [Compound 38, 4-AMINO-1-(2- DIMETHOXYMETHOXYMETHYL- [1,3]DIOXOLAN-4-YL)-1H- PYRIMIDIN-2-ONE] | 900 | 1000 | 110 | > 100000 | 340 | – | – | – | – | 909 | – | – | – | – | – | – | –
5 | CCOC(OCC)OC[C@H]1OC[C@@H](n2ccc(N)nc2=O)O1 [Compound 39, 4-AMINO-1-(2- DIETHOXYMETHOXYMETHYL- [1,3]DIOXOLAN-4-YL)-1H- PYRIMIDIN-2-ONE] | 320 | – | 47 | > 100000 | 160 | 390 | 62 | 120 | – | – | – | – | – | – | – | – | –
6 | Nc1ccn([C@@H]2CO[C@H](COC3OCCO3)O2)c(=O)n1 [Compound 40, 4-AMINO-1-[2- ([1,3]DIOXOLAN-2- YLOXYMETHYL)- [1,3]DIOXOLAN-4-YL]-1H- PYRIMIDIN-2-ONE] | 900 | 70 | 89 | > 100000 | 320 | – | – | – | – | 1,123 | – | – | – | – | – | – | –
7 | O=C(Nc1ccn([C@@H]2CO[C@H](COC(=O)Oc3ccccc3)O2)c(=O)n1)Oc1ccccc1 [Compound 43] | – | – | – | – | – | – | – | – | – | 1,000,000 | – | – | 29 | 4.1 | < 0.1 | > 100000 | 10
8 | O=C(Nc1ccn([C@@H]2CO[C@H](CO)O2)c(=O)n1)Oc1ccccc1 [Compound 44, [1-(2-HYDROXYMETHYL- [1,3]DIOXOLAN-4-YL)-2- OXO-1,2-DIHYDRO- […]-4-YL]- CARBAMIC ACID PHENYL ESTER] | – | – | – | – | – | – | – | – | – | 1,300 | – | – | 890 | 970 | 77 | > 100000 | 370
9 | CC(C)OC(=O)OC[C@H]1OC[C@@H](n2ccc(N)nc2=O)O1.O=C(O)C(F)(F)F [Compound 67, CARBONIC ACID 4-(4- AMINO-2-OXO-2H- PYRIMIDIN-1-YL)- [1,3]DIOXOLAN-2- YLMETHYL ESTER ISOPROPYL ESTER TRIFLUOROACETATE SALT] | 400 | – | 180 | > 100000 | 82 | – | – | – | – | 556 | – | – | – | – | – | – | –

Further lines, with some results ahead:

Row | IC50 (SF-268; [1]) [nM] | IC50 (MCF-7; [2]) [nM] | IC50 (CCRF-CEM; [3]) [nM] | IC50 (CEM/dCK-; [4]) [nM] | IC50 (H-460; [5]) [nM] | IC50 (SF-268; [6]) [nM] | IC50 (CCRF-CEM; [7]) [nM] | IC50 (H-460; [8]) [nM] | IC50 (CEM/dCK-; read-out: IC50 CEM/dCK- 24 h, 24 h drug exposure, wash, another 48 hr, deoxycytidine kinase-deficient CCRF-CEM) [nM] | Compound | Factor* (Resistance Factor = Ratio of dCK- on Wild-type CCRF-CEM) (CEM/dCK-) | IC50 (MCF-7; read-out: IC50 MCF-7 24 h, 24 h drug exposure, wash, another 48 hr, 3H-TdR incorporation at 72 hr, bis trifluoroacetate salt) [nM] | IC50 (H-460; read-out: IC50 H-460 24 h, 24 h drug exposure, wash, another 48 hr, 3H-TdR incorporation at 72 hr, bis trifluoroacetate salt) [nM] | IC50 (SF-268; [9]) [nM] | IC50 (MCF-7; [10]) [nM] | IC50 (CCRF-CEM; [11]) [nM] | IC50 (CEM/dCK-; [12]) [nM] | IC50 (H-460; [13]) [nM]
10 | 680 | 460 | 180 | 89000 | 460 | – | – | – | – | CCC(C)(C)OC(C)OC[C@H]1OC[C@@H](n2ccc(N)nc2=O)O1 (mixture of isomers) [Compound 117, 4-AMINO-1-{2-[1-(1,1- DIMETHYL-PROPOXY)- ETHOXYMETHYL]- [1,3]DIOXOLAN-4-YL}-1H- PYRIMIDIN-2-ONE] | 494 | – | – | – | – | – | – | –
11 | > 100000 | 91000 | 21000 | > 100000 | 40000 | – | – | – | – | Nc1ccn([C@@H]2CO[C@H](COC3CCCCO3)O2)c(=O)n1 (stereo in doubt) [Compound 41, 4-AMINO-1-[2- (TETRAHYDRO-PYRAN-2- YLOXYMETHYL)- [1,3]DIOXOLAN-4-YL]-1H- PYRIMIDIN-2-ONE] | 5 | – | – | – | – | – | – | –
12 | 10000 | 10000 | 2000 | 37000 | 8900 | – | – | – | – | Nc1cc[n+]([C@@H]2CO[C@H](COC(c3ccccc3)(c3ccccc3)c3ccccc3)O2)c(=O)[nH]1 (stereo in doubt) [Compound 53, 4-AMINO-1-(2- TRITYLOXYMETHYL- [1,3]DIOXOLAN-4-YL)-1H- PYRIMIDIN-2-ONE] | 19 | – | – | – | – | – | – | –
13 | 25000 | 2000 | 1600 | > 100000 | 7000 | – | – | – | – | Nc1ccn([C@@H]2COC(COCOCc3ccccc3)O2)c(=O)n1 (stereo in doubt) [Compound 56, 4-AMINO-1-(2- BENZYLOXYMETHOXYMETHYL- [1,3]DIOXOLAN-4-YL)-1H- PYRIMIDIN-2-ONE] | 63 | – | – | – | – | – | – | –
14 | 5500 | 1800 | 2800 | > 100000 | 630 | – | – | – | – | CCOC(C)OC[C@H]1OC[C@@H](n2ccc(N)nc2=O)O1 (stereo in doubt) [Compound 91, 4-AMINO-1-[2-(1-ETHOXY- ETHOXYMETHYL)- [1,3]DIOXOLAN-4-YL]-1H- PYRIMIDIN-2-ONE] | 36 | – | – | – | – | – | – | –
15 | 3700 | 40 | 94 | 58000 | 630 | – | – | – | – | CC(CCCCN(Cc1ccccc1)C(=O)OC(C)(C)C)C(=O)Nc1ccn([C@@H]2CO[C@H](CO)O2)c(=O)n1 (stereo in doubt) [Compound 158, Benzyl-{5-[1-(2-hydroxymethyl-[1,3]dioxolan-4-yl)-2-oxo-1,2-dihydro-pyrimidin-4-ylcarbamoyl]-hexyl}-carbamic acid tert-butyl ester] | 617 | – | – | – | – | – | – | –
16 | 22 | – | 2.2 | 82000 | 10 | 26 | 2.3 | 7 | > 100000 | Nc1ccn([C@@H]2CO[C@H](COC(=O)Oc3ccccc3)O2)c(=O)n1 [Compound 42, CARBONIC ACID 4-(4- AMINO-2-OXO-2H- PYRIMIDIN-1-YL)- [1,3]DIOXOLAN-2- YLMETHYL ESTER PHENYL ESTER] | – | – | – | – | – | – | – | –
17 | 9000 | 2700 | 1600 | > 100000 | 3200 | – | – | – | – | CCOC(=O)Nc1ccn([C@@H]2CO[C@H](CO)O2)c(=O)n1 [Compound 45, [1-(2-HYDROXYMETHYL- [1,3]DIOXOLAN-4-YL)-2- OXO-1,2-DIHYDRO- PYRIMIDIN-4-YL]- CARBAMIC ACID ETHYL ESTER] | 63 | – | – | – | – | – | – | –
18 | 560 | 160 | 60 | > 100000 | 86 | – | – | – | – | CCOC(=O)OC[C@H]1OC[C@@H](n2ccc(N)nc2=O)O1 [Compound 46, CARBONIC ACID 4-(4- AMINO-2-OXO-2H- PYRIMIDIN-1-YL)- [1,3]DIOXOLAN-2- YLMETHYL ESTER ETHYL ESTER] | 1,667 | – | – | – | – | – | – | –
19 | 47 | 19 | 4.8 | 32000 | – | – | – | – | – | Nc1ccn([C@@H]2CO[C@H](COC(=O)OCc3ccccc3)O2)c(=O)n1 [Compound 57, CARBONIC ACID 4-(4- AMINO-2-OXO-2H- PYRIMIDIN-1-YL)- [1,3]DIOXOLAN-2- YLMETHYL ESTER BENZYL ESTER] | – | – | – | – | – | – | – | –

— patent US20030013660A1, “Dioxolane analogs for improved inter-cellular delivery” (Shire BioChem Inc., priority 2000, published 2003)
